Here are results for five compounds from PMC7532663, “Pharmacological inhibition of mTORC1 increases CCKBR-specific tumor uptake of radiolabeled minigastrin analogue [^177Lu]Lu-PP-F11N” (Theranostics, 2020).

In data set [1] the test system is AR42J cells. It is filed as cell-based, rat. The text has this:
(§1) […]. […] […].

Data set [2] relates to A431 cells. As to the kind of experiment: Total protein concentration of cell lysates. In kind it is cell-based, human. To be noted: 100 nM RAD001.
Text: as §1

The subject of data set [3] is A431/CCKBR cells. In words: Total protein concentration of cell lysates. In kind it is cell-based, human. To be noted: for total protein level compared to control: 100 nM RAD001 or 10 mM metformin, 20 h.
Text: as §1

In data set [4] the test system is AR42J cells. In words: Total protein concentration of cell lysates. It is filed as cell-based, rat. Particulars: 100 nM RAD001.
Text: as §1

For data set [5], the system named is mTORC1-regulated phosphorylation of the ribosomal protein S6 at Ser235/236. As to the kind of experiment: WB analysis of phospho-S6. To be noted: for phosphorylation of S6 at Ser235/236 (WB): A431/CCKBR cells, 100 nM RAD001 or 10 mM metformin. It is filed as cell-based, human. Here is the method: (§2) Antibodies against phospho-S6 at S235/S236 (D57.2.2F), ERK1/2 (9102), phospho-ERK1/2 (T202/Y204), GAPDH (14C10) and HA-Tag (C29F4) were obtained from Cell Signaling Technology, whereas the anti-CCKBR (ab77077) was from Abcam. Cells were homogenized in lysis buffer (50 mM Tris-HCl pH 7.5, 150 mM NaCl, 1% Triton X, 0.1% SDS supplemented with 1 mM sodium orthovanadate, 1 mM NaF and protease inhibitor cocktail (Roche)). 50 μg of total protein lysates were separated by SDS-PAGE and transferred to PVDF membranes (Millipore) by electroblotting. Membranes were blocked with 5% skim milk in TBST (0.1% Tween 20) for 1 h, and incubated with 2% BSA in TBST overnight with the primary antibody followed by 2 h incubation with HRP-conjugated secondary antibody. Signals were produced by using a chemiluminescence reagent (ECL) and acquired by ImageQuant RT ECL Imager (GE Healthcare). Prior to CCKBR detection by WB, protein lysates were subjected to deglycosylation. Briefly, 18 μL of total protein lysates (50 µg) were mixed with 2 μL of 10× denaturing buffer (5% SDS, 0.4 M DTT) and incubated for 10 min at RT. Next, 4 μL of 10× Glycobuffer (0.5 M sodium phosphate, pH 7.5), 4 μL of 10% Tween-20 and 10 μL of water were added. Finally, 2 μL of PNGase F (Sigma) was added and the reaction was carried out for 16 h at 37°C.

Data set [6] concerns CCKBR. In words: WB analysis of CCKBR protein level in deglycosylated lysates. It is filed as cell-based, human. To be noted: 50 or 100 nM RAD001, 20 h; A431/CCKBR; CCKBR/GAPDH. Here is the method: as §2
In data set [7] the test system is β-arrestin-1 recruitment to CCKBR. In words: Split luciferase arrestin recruitment assay. In kind it is cell-based, human. Particulars: RAD001 20 h, then 1 µM PP-F11N.
Data set [8] has as its system β-arrestin-2 recruitment to CCKBR. In words: Split luciferase arrestin recruitment assay. Particulars: RAD001 20 h, then 1 µM PP-F11N. In kind it is cell-based, human.
In data set [9] the test system is A431/CCKBR cells. As to the kind of experiment: Hoechst fluorescence cell number control. It is filed as cell-based, human. To be noted: RAD001 pretreatment 20 h.
The test system of data set [10] is A431/CCKBR-tumor bearing nude mice. As to the kind of experiment: Tumor volume, mouse weight and toxicity during treatment. It is filed as in vivo.
The subject of data set [11] is A431/CCKBR tumors. As to the kind of experiment: HE staining and immunohistochemistry of tumor sections. It is filed as in vivo, mouse. To be noted: for mitotic index / necrosis (necrotic area) / Ki67 positive cells: 5 days treatment, mean ± SD; for tumor vascularization: HE and CD34, five-day treatment; for necrosis (necrotic area): HE stain; for Ki67 positive cells: IHC. How it is done:
Formalin-fixed, paraffin tumor sections were deparaffinized, rehydrated and pretreated in 10 mM citrate buffer, pH 6.0, at 98 °C for 60 minutes, followed by incubation with 4% fat-free milk in PBS for 90 minutes. For avidin/biotin blocker treatment (Invitrogen) and detection, the ABC method was used. For monoclonal antibody against Ki67 (SP6, Thermo Scientific) and CD34 (cloneQBend/10; Dako) signals were recorded using an automated instrument reagent system (Discovery XT, Ventana Medical System Inc.). Images of hematoxylin-counterstained sections were captured (Nikon, YTHM) and analyzed using ImageAccess Enterprise7 and ImageJ software. Tumor necrotic areas and vascularization were analyzed in 10 (RAD001 and PBS) and 8 (metformin) images, whereas Ki67 and mitotic index in 15 (RAD001 and PBS) and 12 (metformin) images.

Data set [12] has as its system A431/CCKBR cells. To be noted: 100 nM RAD001 or 10 mM metformin; for internalization ratio [treatment/control]: 20 h; for [177Lu]Lu-PP-F11N internalization in treated cells: 20 h treatment, 0.3 pmol radioligand 1 h, triplicate.
Experimental: Radioactive medium (and PBS wash) was collected and the cells were washed 2× with glycine buffer (pH=2) for 5 min at RT followed by a dissolving step in 1 M NaOH for 15 min at 37°C. All 3 fractions (medium/PBS; glycine; dissolved cells) were measured on Cobra II Auto-Gamma counter (Packard). For the cell uptake analysis, the PBS-washed cells were directly dissolved in 1M NaOH, or combined glycine-wash and 1M NaOH dissolved cells, were measured on the Gamma counter. […] Protein concentration of cell lysates was measured by using NanoPhotometer® UV-Vis P-Class (Implen).
The test system of data set [13] is A431/CCKBR-tumor bearing nude mice. Particulars: for influence on [177Lu]Lu-PP-F11N tumor uptake: three doses of metformin or one RAD001 dose.
The conditions of data set [14]: clinical study; cited from earlier work. The source says:
Overexpression of G-protein coupled receptors (GPCRs) that selectively bind their peptide ligands allowed the development of the peptide receptor radionuclide therapy (PRRT) for human cancers. One of the most important properties of PRRT is a high uptake ratio of tumor-to-healthy-tissue in terms of radiolabeled ligands. Consequently, the molecular strategies which increase uptake of radiopharmaceuticals selectively in cancer tissue while sparing healthy organs from cytotoxic side effects have huge potential to improve PRRT efficacy. Activated GPCRs by agonistic ligand-based radiotherapeuti ...

Data set [15] in a line: in vivo. To be noted: female, CD-1 nude, mouse, iv, 3 pmol, total radioactivity, Uptake [% i.A./g], PBS group, control PBS-treated mice, 3 pmol i.v., 4 h post injection, mean.
Data set [16] has as its system A431/CCKBR cells. In words: Kinase inhibitor library screen: [177Lu]Lu-PP-F11N cell uptake. In kind it is cell-based, human. Particulars: ratio treatment/control; 10 μM inhibitor.
Data set [17] has as its system A431/CCKBR cells. As to the kind of experiment: CellTiter 96 AQueous (MTS) proliferation assay. In kind it is cell-based, human. Particulars: for Proliferation [A570]: 10 μM kinase inhibitor, MTS absorbance at 570 nm, reference 650 nm, mean of triplicate; for Proliferation (ratio): ratio treatment/control, 10 μM inhibitor.

Where “and” joins values, the source holds several entries; their conditions need not be identical. Equal values may be shown once.

In the case of `CO[C@H]1C[C@@H]2CC[C@@H](C)[C@@](O)(O2)C(=O)C(=O)N2CCCC[C@H]2C(=O)O[C@H]([C@H](C)C[C@@H]2CC[C@@H](OCCO)[C@H](OC)C2)CC(=O)[C@H](C)/C=C(\C)[C@@H](O)[C@@H](OC)C(=O)[C@H](C)C[C@H](C)/C=C/C=C/C=C/1C` [RAD001, Everolimus], the “internalization ratio [RAD001/control]” value in data set [1] was determined as 1.7. Besides, the “[177Lu]Lu-PP-F11N internalization in treated cells” value (“[177Lu]Lu-PP-F11N internalization” for short) in data set [1] (100 nM RAD001) worked out at 10%. Also, the “total protein level compared to control” value in [2] is listed as 79%. Further, the “total protein level compared to control” value in data set [3] is given as 79%. The “total protein level compared to control” value in data set [4] stood at 84%. In addition, in data set [5] (20 h incubation with 50, 100 and 200 nM RAD001, A431/CCKBR), the “S6 phosphorylation (WB)” value was “inhibited S6 phosphorylation”. Further, in [5], the “phosphorylation of S6 at Ser235/236 (WB)” value is on record as “lack of mTORC1-regulated phosphorylation”. Moreover, the “increase of CCKBR level” value in [6] turned out to be 2.2 fold. Also, the “effect of RAD001 on β-arrestin-1 recruitment” value in data set [7] was “no difference”. In addition, in data set [8], the “effect of RAD001 on β-arrestin-2 recruitment” value is on record as “no difference”. Also, the “cell number by Hoechst fluorescence” value in data set [9] is “significantly reduced cell number”. In data set [10] (3 daily doses), the mouse weight entry was “without influencing overall mouse weight” and the tumor volume entry is recorded as “significantly reduced tumor volumes”. Also, in data set [10] (5 days daily treatment), the mouse weight result is “without influencing overall mouse weight” and the tumor volume result is “significantly reduced tumor volumes”. In data set [11], the mitotic index is 0.75% and 0.75 ± 0.36%; the tumor vascularization entry is reported as “No significant difference”; the “necrosis (necrotic area)” value turned out to be 10.6 ± 6.4%; the Ki67 positive cells is 61% and 61 ± 8.6%. In [12], the “internalization ratio [treatment/control]” value came out at 1.5 and the “[177Lu]Lu-PP-F11N internalization” value worked out at 24.3%. Also, the “influence on [177Lu]Lu-PP-F11N tumor uptake” value in [13] was “only moderately and did not reach statistical significance”. Further, the “[177Lu]Lu-PP-F11N uptake in tumors of matching sizes” value in data set [13] (tumors ranging from 50-150 or 50-180 mg) is given as “statistically significant increase”.
Turning to `CCCC[C@H](NC(=O)[C@H](Cc1c[nH]c2ccccc12)NC(=O)CNC(=O)[C@H](Cc1ccc(O)cc1)NC(=O)[C@H](C)NC(=O)[C@@H](CCC(=O)O)NC(=O)[C@@H](CCC(=O)O)NC(=O)[C@@H](CCC(=O)O)NC(=O)[C@@H](CCC(=O)O)NC(=O)[C@@H](CCC(=O)O)NC(=O)[C@@H](CCC(=O)O)NC(=O)CN1CCN(CC(=O)O)CCN(CC(=O)O)CCN(CC(=O)O)CC1)C(=O)N[C@@H](CC(=O)O)C(=O)N[C@@H](Cc1ccccc1)C(N)=O` [[^177Lu]Lu-PP-F11N, [^177Lu]Lu-DOTA-(DGlu)6-Ala-Tyr-Gly-Trp-Nle-Asp-Phe-NH2, metal not drawn], in [14], the “median tumor-to-kidney dose ratio” value is listed as 11.6. Also, the tumor-to-stomach dose ratio in [14] is 3.34. For the same compound, the tissue uptake (usually the percentage of the injected dose found per gram of tissue) at 4 h in [15] (Blood) amounted to 0.043 %ID/g; in data set [15] (Bone) it was 0.37 %ID/g; in [15] (Brain), 0.03 %ID/g; in data set [15] (Intestines) it was 0.23 %ID/g; in data set [15] (Kidney), 3.07 %ID/g; in data set [15] (Liver), 0.17 %ID/g. For the same compound, the tissue uptake at 4 h in data set [15] (Lung) was determined as 0.08 %ID/g; in data set [15] (Pancreas) it was 0.12 %ID/g; in data set [15] (Spleen), 0.1 %ID/g; in [15] (Stomach), 1.01 %ID/g; in data set [15] (Tumor, n=6), 10.9 %ID/g.
With `CN(C)C(=N)N=C(N)N` [Metformin, metformin], the “total protein level compared to control” value in [3] turned out to be 80%. In addition, the “phosphorylation of S6 at Ser235/236 (WB)” value in [5] is given as “lack of mTORC1-regulated phosphorylation”. For the same compound, in [10] (3 daily doses), the mouse weight entry is reported as “no effects” and the tumor volume entry is reported as “no effects”. Moreover, in data set [10] (5 days daily treatment), the mouse weight entry was “no effects” and the tumor volume result was “no effects”. In data set [11], the mitotic index entry was “did not cause a significant change”, the tumor vascularization entry is on record as “No significant difference”, the “necrosis (necrotic area)” value is on record as “did not show a significant difference” and the Ki67 positive cells entry is recorded as “did not cause a significant change”. For the same compound, in data set [12], the “internalization ratio [treatment/control]” value stood at 1.3 and the “[177Lu]Lu-PP-F11N internalization” value came out at 21.1%. For the same compound, in data set [13], the “influence on [177Lu]Lu-PP-F11N tumor uptake” value was “only moderately and did not reach statistical significance”.
`CO[C@H]1C[C@@H]2CC[C@@H](C)[C@@](O)(O2)C(=O)C(=O)N2CCCC[C@H]2C(=O)O[C@H]([C@H](C)C[C@@H]2CC[C@@H](O)[C@H](OC)C2)CC(=O)[C@H](C)/C=C(\C)[C@@H](O)[C@@H](OC)C(=O)[C@H](C)C[C@H](C)/C=C/C=C/C=C/1C` [Rapamycin]: in data set [16], the “Uptake (ratio)” value amounted to 1.24. For the same compound, in [17], the “Proliferation [A570]” value amounted to 0.91 and the “Proliferation (ratio)” value is reported as 0.94. Further, the “decrease of total protein level” value in data set [3] (10 µM, lysates of validation experiment) was 26%.
Consider `O=C(O)c1ccc2nc(-c3ccccc3)c(-c3ccccc3)nc2c1` [BML-257], for which the “Uptake (ratio)” value in data set [16] came to 1.26. In data set [17], the “Proliferation [A570]” value was determined as 0.95 and the “Proliferation (ratio)” value amounted to 0.98.
